In general, IC50 refers to the concentration that gives 50% inhibition. Read a high IC50 as weaker potency.

SMILES strings stand for the structures.

One experiment concerns the target ACVR2B (Homo sapiens, UniProt Q13705). The experiment is described as follows: LanthaScreen Eu kinase binding assay, BMP type II receptor ACVR2B. The following applies: 10-point titration from 10 μM, 3-fold serial dilution, Life Technologies. The protocol: (§1) Kinase Profiling BMP Type II Receptor Experimental Procedure (Life Technologies, 5225 Vernona Road, Madison, Wis. 53744)
(§2) The measurement of each compound's half maximal inhibitory concentration (IC50) for BMP type II receptors (ACVR2A, ACVR2B, BMPR2 and TGFbR2) was carried out at Life Technologies by using its 10-point titration (starting concentration: 10 μM with 3-fold serial dilution) LanthaScreen™ biochemical kinase assay protocol. For the detailed description of LanthaScreen™ Eu kinase binding assay condition, please see: https://www.thermofisher.com/us/en/home/industrial/pharma-biopharma/drug-discovery-development/target-and-lead-identification-and-validation/kinasebiology/kinase-activity-assays/lanthascreentm-eu-kinas e-binding-assay/lanthascreen-eu-kinase-binding-assay-validation-table.html.
A general note: In TR-FRET formats the signal depends on donor and acceptor labels being close together.

For a further experiment, the target named is T1, BMPR2 (Homo sapiens, UniProt Q13873).
T1 sequence (Q13873 27-1038): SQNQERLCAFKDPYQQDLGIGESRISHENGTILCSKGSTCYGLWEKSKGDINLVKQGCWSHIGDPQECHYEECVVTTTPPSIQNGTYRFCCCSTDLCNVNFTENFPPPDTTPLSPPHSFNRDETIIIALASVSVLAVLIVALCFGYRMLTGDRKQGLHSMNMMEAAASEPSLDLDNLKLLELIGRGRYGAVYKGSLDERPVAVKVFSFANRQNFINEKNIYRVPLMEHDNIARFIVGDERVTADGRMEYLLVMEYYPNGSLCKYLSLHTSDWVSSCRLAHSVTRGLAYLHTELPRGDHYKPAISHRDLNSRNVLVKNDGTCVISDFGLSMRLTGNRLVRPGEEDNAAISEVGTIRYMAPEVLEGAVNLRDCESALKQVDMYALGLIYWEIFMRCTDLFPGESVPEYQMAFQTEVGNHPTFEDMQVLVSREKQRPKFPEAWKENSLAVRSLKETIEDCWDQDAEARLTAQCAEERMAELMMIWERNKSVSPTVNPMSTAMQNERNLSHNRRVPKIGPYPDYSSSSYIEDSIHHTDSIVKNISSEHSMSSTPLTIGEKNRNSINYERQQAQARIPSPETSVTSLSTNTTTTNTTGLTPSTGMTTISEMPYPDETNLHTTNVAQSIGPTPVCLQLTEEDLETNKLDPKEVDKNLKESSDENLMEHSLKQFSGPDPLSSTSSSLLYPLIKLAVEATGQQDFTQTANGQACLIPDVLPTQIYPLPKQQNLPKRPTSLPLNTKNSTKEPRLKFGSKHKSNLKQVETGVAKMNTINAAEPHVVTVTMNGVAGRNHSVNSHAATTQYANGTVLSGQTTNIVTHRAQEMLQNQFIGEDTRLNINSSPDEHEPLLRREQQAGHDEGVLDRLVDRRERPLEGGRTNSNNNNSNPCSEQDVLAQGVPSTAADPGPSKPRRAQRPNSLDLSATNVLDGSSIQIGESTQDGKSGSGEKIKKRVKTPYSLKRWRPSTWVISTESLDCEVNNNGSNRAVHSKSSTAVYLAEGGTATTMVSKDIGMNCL
The experiment is described as follows: LanthaScreen Eu kinase binding assay, BMP type II receptor BMPR2. The following applies: 10-point titration from 10 μM, 3-fold serial dilution, Life Technologies. As to the method:
as §1, §2

Chain of ACVR2B (Q13705 19-512): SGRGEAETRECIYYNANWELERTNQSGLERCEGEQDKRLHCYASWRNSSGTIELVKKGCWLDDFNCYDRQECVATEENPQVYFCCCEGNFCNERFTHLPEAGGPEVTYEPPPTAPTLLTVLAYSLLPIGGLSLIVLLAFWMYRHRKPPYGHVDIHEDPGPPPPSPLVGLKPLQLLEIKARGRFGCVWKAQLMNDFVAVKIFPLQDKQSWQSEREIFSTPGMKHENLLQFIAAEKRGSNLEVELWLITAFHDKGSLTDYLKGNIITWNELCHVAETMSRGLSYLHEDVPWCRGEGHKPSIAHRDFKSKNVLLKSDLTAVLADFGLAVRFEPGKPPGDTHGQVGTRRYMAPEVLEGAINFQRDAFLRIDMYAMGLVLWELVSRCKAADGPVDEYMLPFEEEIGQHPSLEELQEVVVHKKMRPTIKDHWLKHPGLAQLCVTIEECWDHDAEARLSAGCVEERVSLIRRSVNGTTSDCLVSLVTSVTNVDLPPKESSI

Take `c1ccc2c(-c3cnn4cc(-c5ccc(N6CCNCC6)cc5)cnc34)ccnc2c1` [TRND00262637-13]: the 50% inhibitory concentration (IC50) at ACVR2B is 20 nM; on BMPR2, greater than 10000 nM.
For `Cc1cc(-c2cnn3cc(N4CCC(N5CCN(C)CC5)CC4)cnc23)c2ccccc2n1` [Compound 8], in that order: 745 nM and greater than 10000 nM.

Source of the values: patent US20230000869A1, “NOVEL ALK2 INHIBITORS AND METHODS FOR INHIBITING BMP SIGNALING” (The Brigham and Women's Hospital, Inc., priority 2017, published 2023).
